Source: the NIST ThermoML archive (doi:10.1016/j.jct.2004.07.031)
Where “and” joins values, the source holds several entries; their conditions need not be identical. Equal values may be shown once.

Test: molar heat capacity at constant pressure
Details: 101.33 kPa, Crystal, PPMS instrument (Quantum Design)

O=P([O-])([O-])[O-].[Gd+3] [gadolinium orthophosphate]
Details	molar heat capacity at constant pressure
0.525 K	7.722 J/K/mol
0.536 K	8.106 J/K/mol
0.547 K	8.475 J/K/mol
0.558 K	8.855 J/K/mol
0.569 K	9.277 J/K/mol
0.58 K	9.631 J/K/mol
0.591 K	10.11 J/K/mol
0.602 K	10.69 J/K/mol
0.614 K	11.24 J/K/mol
0.625 K	11.83 J/K/mol
0.637 K	12.57 J/K/mol
0.648 K	13.42 J/K/mol
0.659 K	14.37 J/K/mol
0.67 K	15.29 J/K/mol
0.681 K	16.55 J/K/mol
0.693 K	17.9 J/K/mol
0.703 K	19.56 J/K/mol
0.715 K	21.6 J/K/mol
0.726 K	24.07 J/K/mol
0.73 K	25.16 J/K/mol
0.733 K	26.31 J/K/mol
0.737 K	27.55 J/K/mol
0.738 K	27.92 J/K/mol
0.742 K	29.69 J/K/mol
0.743 K	29.92 J/K/mol
0.745 K	31.34 J/K/mol
0.747 K	31.86 J/K/mol
0.75 K	33.48 J/K/mol
0.751 K	34.37 J/K/mol
0.752 K	35.17 J/K/mol
0.755 K	37.19 J/K/mol
0.756 K	37.83 J/K/mol
0.758 K	40.08 J/K/mol
0.76 K	41.57 J/K/mol
0.763 K	44.62 J/K/mol
0.764 K	46.25 J/K/mol
0.765 K	47.54 J/K/mol
0.768 K	50.76 J/K/mol
0.77 K	52.55 J/K/mol
0.772 K	53.77 J/K/mol
0.773 K	54.78 J/K/mol
0.776 K	54.21 J/K/mol
0.777 K	51.7 J/K/mol and 54.18 J/K/mol
0.782 K	37.73 J/K/mol
0.783 K	33.58 J/K/mol
0.784 K	31.28 J/K/mol
0.786 K	23.82 J/K/mol
0.79 K	19.56 J/K/mol
0.791 K	19.09 J/K/mol
0.794 K	17.74 J/K/mol
0.796 K	16.84 J/K/mol
0.797 K	16.39 J/K/mol
0.799 K	15.8 J/K/mol
0.8 K	15.62 J/K/mol
0.804 K	14.83 J/K/mol
0.806 K	14.48 J/K/mol
0.816 K	13.11 J/K/mol
0.843 K	11.32 J/K/mol
0.867 K	10.3 J/K/mol
0.872 K	10.13 J/K/mol
0.882 K	9.827 J/K/mol
0.89 K	9.584 J/K/mol
0.892 K	9.579 J/K/mol
0.902 K	9.269 J/K/mol
0.912 K	9.065 J/K/mol
0.914 K	9.009 J/K/mol
0.922 K	8.871 J/K/mol
0.933 K	8.692 J/K/mol
0.939 K	8.538 J/K/mol
0.942 K	8.499 J/K/mol
0.952 K	8.332 J/K/mol
0.962 K	8.221 J/K/mol
0.963 K	8.167 J/K/mol
0.973 K	8.056 J/K/mol
0.983 K	7.933 J/K/mol
0.986 K	7.919 J/K/mol
0.993 K	7.852 J/K/mol
1.003 K	7.778 J/K/mol
1.01 K	7.554 J/K/mol
1.059 K	6.868 J/K/mol
1.141 K	6.058 J/K/mol
1.22 K	5.523 J/K/mol
1.301 K	4.919 J/K/mol
1.381 K	4.476 J/K/mol
1.461 K	4.061 J/K/mol
1.544 K	3.711 J/K/mol
1.619 K	3.447 J/K/mol
1.699 K	3.178 J/K/mol
1.78 K	2.944 J/K/mol
1.841 K	2.578 J/K/mol
1.86 K	2.751 J/K/mol
1.94 K	2.578 J/K/mol
2.02 K	2.372 J/K/mol
2.234 K	1.874 J/K/mol
2.648 K	1.377 J/K/mol
3.055 K	1.063 J/K/mol
3.464 K	0.8457 J/K/mol
3.872 K	0.6931 J/K/mol
4.291 K	0.57 J/K/mol
4.675 K	0.4911 J/K/mol
5.081 K	0.4292 J/K/mol
5.499 K	0.3415 J/K/mol
5.896 K	0.3389 J/K/mol
6.3 K	0.3079 J/K/mol
6.728 K	0.2809 J/K/mol
7.126 K	0.2659 J/K/mol
7.523 K	0.2545 J/K/mol
7.936 K	0.2483 J/K/mol
8.343 K	0.2454 J/K/mol
8.747 K	0.246 J/K/mol
8.971 K	0.2476 J/K/mol
9.151 K	0.2497 J/K/mol
9.554 K	0.2573 J/K/mol
9.964 K	0.2698 J/K/mol
9.976 K	0.2696 J/K/mol
10.96 K	0.3114 J/K/mol
11.94 K	0.3719 J/K/mol
12.94 K	0.4546 J/K/mol
13.93 K	0.5628 J/K/mol
14.93 K	0.6954 J/K/mol
15.93 K	0.8555 J/K/mol
16.93 K	1.039 J/K/mol
17.94 K	1.247 J/K/mol
18.95 K	1.476 J/K/mol
19.95 K	1.752 J/K/mol
20.95 K	2.036 J/K/mol
21.96 K	2.353 J/K/mol
22.97 K	2.692 J/K/mol
23.97 K	3.053 J/K/mol
24.98 K	3.44 J/K/mol
25.98 K	3.849 J/K/mol
26.99 K	4.279 J/K/mol
28 K	4.714 J/K/mol
29 K	5.169 J/K/mol
30.01 K	5.631 J/K/mol
32 K	6.652 J/K/mol
34 K	7.603 J/K/mol
36.02 K	8.663 J/K/mol
38.05 K	9.792 J/K/mol
40.06 K	10.89 J/K/mol
42.08 K	12.02 J/K/mol
44.09 K	13.17 J/K/mol
46.11 K	14.35 J/K/mol
48.12 K	15.55 J/K/mol
50.14 K	16.75 J/K/mol
53.15 K	18.58 J/K/mol
56.16 K	20.4 J/K/mol
59.19 K	22.22 J/K/mol
62.22 K	24.02 J/K/mol
65.24 K	25.8 J/K/mol
68.26 K	27.54 J/K/mol
71.29 K	29.29 J/K/mol
74.3 K	31.02 J/K/mol
77.33 K	32.72 J/K/mol
80.35 K	34.4 J/K/mol
85.39 K	37.09 J/K/mol
92.14 K	40.56 J/K/mol
98.9 K	43.87 J/K/mol
105.7 K	47.02 J/K/mol
112.4 K	50.06 J/K/mol
119.2 K	53.01 J/K/mol
126 K	55.84 J/K/mol
132.7 K	58.53 J/K/mol
139.5 K	61.13 J/K/mol
146.3 K	63.67 J/K/mol
153 K	65.98 J/K/mol
159.8 K	68.28 J/K/mol
166.6 K	70.53 J/K/mol
173.3 K	72.7 J/K/mol
180.1 K	74.71 J/K/mol
186.8 K	76.76 J/K/mol
193.6 K	78.76 J/K/mol
200.4 K	80.59 J/K/mol
207.1 K	82.32 J/K/mol
213.8 K	84.09 J/K/mol
220.6 K	85.76 J/K/mol
227.4 K	87.27 J/K/mol
234.1 K	88.95 J/K/mol
240.9 K	90.53 J/K/mol
247.7 K	92.18 J/K/mol
254.4 K	93.53 J/K/mol
261.1 K	94.92 J/K/mol
267.9 K	96.45 J/K/mol
274.6 K	97.84 J/K/mol
281.3 K	98.99 J/K/mol
288.1 K	100.29 J/K/mol
294.8 K	101.42 J/K/mol
301.6 K	102.56 J/K/mol
